Test results taken from ChEMBL document CHEMBL1129416, “Brain-targeted delivery of a leucine-enkephalin analogue by retrometabolic design” (J Med Chem, 1996).

Experiment: The compound was evaluated for opioid receptors binding affinity competition with [3H]diprenorphine.

## CC(C)C[C@@H](NC(=O)[C@H](Cc1ccccc1)NC(=O)CNC(=O)[C@@H](C)NC(=O)[C@@H](N)Cc1ccc(O)cc1)C(=O)O [DADLE]
  IC50: 36 nM
